# According to the supplement of paper PMC10307832:
# Key:
# Assay in all cases: relative viability (nuclei count vs DMSO), 5 days (fraction); higher = more cells survive
# LU99A = test system: LU99A
# Procedure, shortened: (§1)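 Values are medians from duplicate plates. Each reflects relative viability, defined as the nuclei count of treated wells over that of vehicle wells. Lung cancer cell lines in 1536-well plates were pin-tool dosed one day after seeding with one drug alone or with a fixed anchor-drug dose plus five library-drug doses (not always all listed) in √10 steps, then fixed, stained and imaged at 4× after 5 days.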
# LXF-289 = test system: LXF-289
# Procedure, shortened: as §1
# NCI-H322M = test system: NCI-H322M
# Procedure, shortened: as §1
# PC-14 = test system: PC-14
# Procedure, shortened: as §1
# LCLC-103H = test system: LCLC-103H
# Procedure, shortened: as §1
# RERF-LC-KJ = test system: RERF-LC-KJ
# Procedure, shortened: as §1
# NCI-H23 = test system: NCI-H23
# Procedure, shortened: as §1
# EPLC-272H = test system: EPLC-272H
# Procedure, shortened: as §1
# LK-2 = test system: LK-2
# Procedure, shortened: as §1
# HCC-827 = test system: HCC-827
# Procedure, shortened: as §1
# EKVX = test system: EKVX
# Procedure, shortened: as §1
# SW 1573 = test system: SW 1573
# Procedure, shortened: as §1
# ChaGo-K-1 = test system: ChaGo-K-1
# Procedure, shortened: as §1
# HCC-78 = test system: HCC-78
# Procedure, shortened: as §1
# NCI-H1666 = test system: NCI-H1666
# Procedure, shortened: as §1
# EMC-BAC-2 = test system: EMC-BAC-2
# Procedure, shortened: as §1
# NCI-H2405 = test system: NCI-H2405
# Procedure, shortened: as §1
# NCI-H2342 = test system: NCI-H2342
# Procedure, shortened: as §1
# SK-LU-1 = test system: SK-LU-1
# Procedure, shortened: as §1
# SW 900 = test system: SW 900
# Procedure, shortened: as §1
# NCI-H2126 = test system: NCI-H2126
# Procedure, shortened: as §1
# NCI-H1975 = test system: NCI-H1975
# Procedure, shortened: as §1
smiles,measurement,setting,value
CCN(CC)CCCCNc1ncc2cc(-c3cc(OC)cc(OC)c3)c(NC(=O)NC(C)(C)C)nc2n1 + Nc1ncn([C@H]2C[C@H](O)[C@@H](CO)O2)c(=O)n1 [Decitabine] (partner 2 µM),relative viability,LU99A; first compound 0.01 µM,1.01
same,relative viability,LU99A; first compound 0.03162 µM,0.82
same,relative viability,LU99A; first compound 0.1 µM,0.861
same,relative viability,LU99A; first compound 0.3162 µM,0.944
same,relative viability,LU99A; first compound 1 µM,0.79
same,relative viability,LXF-289; first compound 0.01 µM,0.336
same,relative viability,LXF-289; first compound 0.03162 µM,0.364
same,relative viability,LXF-289; first compound 0.1 µM,0.363
same,relative viability,LXF-289; first compound 0.3162 µM,0.424
same,relative viability,LXF-289; first compound 1 µM,0.377
same,relative viability,NCI-H322M; first compound 0.01 µM,0.691
same,relative viability,NCI-H322M; first compound 0.03162 µM,0.767
same,relative viability,NCI-H322M; first compound 0.1 µM,0.687
same,relative viability,NCI-H322M; first compound 0.3162 µM,0.696
same,relative viability,NCI-H322M; first compound 1 µM,0.663
same,relative viability,PC-14; first compound 0.01 µM,0.239
same,relative viability,PC-14; first compound 0.03162 µM,0.298
same,relative viability,PC-14; first compound 0.1 µM,0.262
same,relative viability,PC-14; first compound 0.3162 µM,0.249
same,relative viability,PC-14; first compound 1 µM,0.228
same,relative viability,LCLC-103H; first compound 0.01 µM,0.775
same,relative viability,LCLC-103H; first compound 0.03162 µM,0.782
same,relative viability,LCLC-103H; first compound 0.1 µM,0.758
same,relative viability,LCLC-103H; first compound 0.3162 µM,0.809
same,relative viability,LCLC-103H; first compound 1 µM,0.602
same,relative viability,RERF-LC-KJ; first compound 0.01 µM,0.697
same,relative viability,RERF-LC-KJ; first compound 0.03162 µM,0.687
same,relative viability,RERF-LC-KJ; first compound 0.1 µM,0.74
same,relative viability,RERF-LC-KJ; first compound 0.3162 µM,0.717
same,relative viability,RERF-LC-KJ; first compound 1 µM,0.603
same,relative viability,NCI-H23; first compound 0.01 µM,0.297
same,relative viability,NCI-H23; first compound 0.03162 µM,0.307
same,relative viability,NCI-H23; first compound 0.1 µM,0.292
same,relative viability,NCI-H23; first compound 0.3162 µM,0.355
same,relative viability,NCI-H23; first compound 1 µM,0.326
same,relative viability,EPLC-272H; first compound 0.01 µM,0.384
same,relative viability,EPLC-272H; first compound 0.1 µM,0.359
same,relative viability,EPLC-272H; first compound 0.3162 µM,0.378
same,relative viability,EPLC-272H; first compound 1 µM,0.331
same,relative viability,LK-2; first compound 0.01 µM,0.305
same,relative viability,LK-2; first compound 0.03162 µM,0.268
same,relative viability,LK-2; first compound 0.1 µM,0.192
same,relative viability,LK-2; first compound 0.3162 µM,0.217
same,relative viability,LK-2; first compound 1 µM,0.175
same,relative viability,HCC-827; first compound 0.01 µM,0.311
same,relative viability,HCC-827; first compound 0.03162 µM,0.369
same,relative viability,HCC-827; first compound 0.1 µM,0.346
same,relative viability,HCC-827; first compound 0.3162 µM,0.376
same,relative viability,HCC-827; first compound 1 µM,0.284
same,relative viability,EKVX; first compound 0.03162 µM,0.323
same,relative viability,EKVX; first compound 0.1 µM,0.329
same,relative viability,EKVX; first compound 0.3162 µM,0.314
same,relative viability,EKVX; first compound 1 µM,0.295
same,relative viability,SW 1573; first compound 0.01 µM,0.441
same,relative viability,SW 1573; first compound 0.03162 µM,0.528
same,relative viability,SW 1573; first compound 0.1 µM,0.583
same,relative viability,SW 1573; first compound 0.3162 µM,0.591
same,relative viability,SW 1573; first compound 1 µM,0.435
same,relative viability,ChaGo-K-1; first compound 0.01 µM,0.563
same,relative viability,ChaGo-K-1; first compound 0.03162 µM,0.516
same,relative viability,ChaGo-K-1; first compound 0.1 µM,0.54
same,relative viability,ChaGo-K-1; first compound 0.3162 µM,0.539
same,relative viability,ChaGo-K-1; first compound 1 µM,0.51
same,relative viability,HCC-78; first compound 0.01 µM,0.697
same,relative viability,HCC-78; first compound 0.03162 µM,0.769
same,relative viability,HCC-78; first compound 0.1 µM,0.683
same,relative viability,HCC-78; first compound 0.3162 µM,0.666
same,relative viability,HCC-78; first compound 1 µM,0.636
same,relative viability,NCI-H1666; first compound 0.01 µM,0.695
same,relative viability,NCI-H1666; first compound 0.03162 µM,0.791
same,relative viability,NCI-H1666; first compound 0.1 µM,0.761
same,relative viability,NCI-H1666; first compound 0.3162 µM,0.759
same,relative viability,NCI-H1666; first compound 1 µM,0.79
same,relative viability,EMC-BAC-2; first compound 0.03162 µM,1
same,relative viability,EMC-BAC-2; first compound 0.1 µM,0.938
same,relative viability,EMC-BAC-2; first compound 0.3162 µM,0.948
same,relative viability,EMC-BAC-2; first compound 1 µM,0.876
same,relative viability,NCI-H2405; first compound 0.01 µM,0.778
same,relative viability,NCI-H2405; first compound 0.03162 µM,0.728
same,relative viability,NCI-H2405; first compound 0.1 µM,0.767
same,relative viability,NCI-H2405; first compound 0.3162 µM,0.765
same,relative viability,NCI-H2405; first compound 1 µM,0.702
same,relative viability,NCI-H2342; first compound 0.01 µM,0.692
same,relative viability,NCI-H2342; first compound 0.03162 µM,0.668
same,relative viability,NCI-H2342; first compound 0.1 µM,0.697
same,relative viability,NCI-H2342; first compound 0.3162 µM,0.781
same,relative viability,NCI-H2342; first compound 1 µM,0.807
same,relative viability,SK-LU-1; first compound 0.01 µM,0.628
same,relative viability,SK-LU-1; first compound 0.03162 µM,0.608
same,relative viability,SK-LU-1; first compound 0.1 µM,0.59
same,relative viability,SK-LU-1; first compound 0.3162 µM,0.705
same,relative viability,SK-LU-1; first compound 1 µM,0.448
same,relative viability,SW 900; first compound 0.01 µM,0.509
same,relative viability,SW 900; first compound 0.03162 µM,0.401
same,relative viability,SW 900; first compound 0.1 µM,0.459
same,relative viability,SW 900; first compound 0.3162 µM,0.416
same,relative viability,SW 900; first compound 1 µM,0.437
same,relative viability,NCI-H2126; first compound 0.01 µM,0.555
same,relative viability,NCI-H2126; first compound 0.03162 µM,0.568
same,relative viability,NCI-H2126; first compound 0.1 µM,0.556
same,relative viability,NCI-H2126; first compound 0.3162 µM,0.603
same,relative viability,NCI-H2126; first compound 1 µM,0.63
same,relative viability,NCI-H1975; first compound 0.01 µM,0.396
same,relative viability,NCI-H1975; first compound 0.03162 µM,0.395
same,relative viability,NCI-H1975; first compound 0.1 µM,0.381
same,relative viability,NCI-H1975; first compound 0.3162 µM,0.389
same,relative viability,NCI-H1975; first compound 1 µM,0.358
